Source: patent US10485235B2, “Aryloxypyrimidinyl ethers as herbicides” (FMC Corporation, priority 2015, dated 2019)

System: barnyardgrass (Echinochloa crus-galli)
Test: Test A preemergence, barnyardgrass
Type: in vivo
Settings: Echinochloa crus-galli, pre-emergence, 240 h; Preemergence, 125 g ai/ha; 0 to 100 scale (0 no effect, 100 complete control); read-out: Plant response rating, Barnyardgrass
In short: (§1)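 Scores (0 no effect to 100 complete control) come from visual comparison of treated and untreated plants kept about 10 days in a greenhouse. Growth medium was a loam/sand blend; preemergence treatment was a directed soil spray, postemergence treatment went onto plants at the 1–2 leaf stage.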

Compound | pest or weed control at 125 g/ha [%]
CCCCOc1c(C#N)cccc1Oc1ncc(Cl)cn1 [Compound 35, 2-butoxy-3-[(5-chloro-2-pyrimidinyl)oxy]benzonitrile] | 100

Same assay, conditions: Echinochloa crus-galli, pre-emergence, 240 h; Preemergence, 500 g ai/ha; 0 to 100 scale (0 no effect, 100 complete control); read-out: Plant response rating, Barnyardgrass

Compound | pest or weed control at 500 g/ha [%]
CCCCOc1c(C#N)cccc1Oc1ncc(Cl)cn1 [Compound 35, 2-butoxy-3-[(5-chloro-2-pyrimidinyl)oxy]benzonitrile] | 100

System: wheat (Triticum aestivum)
Test: Test A postemergence, wheat
Type: in vivo
Settings: Triticum aestivum, post-emergence, 240 h; 125 g ai/ha, postemergence; 0 to 100 scale, 0 is no effect, 100 is complete control; approximately 10 days; read-out: Plant response rating, Wheat
In short: as §1

Compound | plant injury at 125 g/ha [%]
CCCCOc1c(C#N)cccc1Oc1ncc(Cl)cn1 [Compound 35, 2-butoxy-3-[(5-chloro-2-pyrimidinyl)oxy]benzonitrile] | 10

Same assay, conditions: Triticum aestivum, post-emergence, 240 h; 500 g ai/ha, postemergence; 0 to 100 scale, 0 is no effect, 100 is complete control; approximately 10 days; read-out: Plant response rating, Wheat

Compound | plant injury at 500 g/ha [%]
CCCCOc1c(C#N)cccc1Oc1ncc(Cl)cn1 [Compound 35, 2-butoxy-3-[(5-chloro-2-pyrimidinyl)oxy]benzonitrile] | 40

System: blackgrass (Alopecurus myosuroides)
Test: Test A postemergence, blackgrass
Type: in vivo
Settings: Alopecurus myosuroides, post-emergence, 240 h; 125 g ai/ha, postemergence; 0 to 100 scale, 0 is no effect, 100 is complete control; approximately 10 days; read-out: Plant response rating, Blackgrass
In short: as §1

Compound | pest or weed control at 125 g/ha [%]
CCCCOc1c(C#N)cccc1Oc1ncc(Cl)cn1 [Compound 35, 2-butoxy-3-[(5-chloro-2-pyrimidinyl)oxy]benzonitrile] | 70

Same assay, conditions: Alopecurus myosuroides, post-emergence, 240 h; 500 g ai/ha, postemergence; 0 to 100 scale, 0 is no effect, 100 is complete control; approximately 10 days; read-out: Plant response rating, Blackgrass

Compound | pest or weed control at 500 g/ha [%]
CCCCOc1c(C#N)cccc1Oc1ncc(Cl)cn1 [Compound 35, 2-butoxy-3-[(5-chloro-2-pyrimidinyl)oxy]benzonitrile] | 90

System: corn (Zea mays)
Test: Test A postemergence, corn
Type: in vivo
Settings: Zea mays, post-emergence, 240 h; 125 g ai/ha, postemergence; 0 to 100 scale, 0 is no effect, 100 is complete control; approximately 10 days
In short: as §1

Compound | Corn plant response rating (crop injury, 0 = no effect, 100 = complete kill) at 125 g/ha [%]
CCCCOc1c(C#N)cccc1Oc1ncc(Cl)cn1 [Compound 35, 2-butoxy-3-[(5-chloro-2-pyrimidinyl)oxy]benzonitrile] | 20

Same assay, conditions: Zea mays, post-emergence, 240 h; 500 g ai/ha, postemergence; 0 to 100 scale, 0 is no effect, 100 is complete control; approximately 10 days

Compound | Corn plant response rating (crop injury, 0 = no effect, 100 = complete kill) at 500 g/ha [%]
CCCCOc1c(C#N)cccc1Oc1ncc(Cl)cn1 [Compound 35, 2-butoxy-3-[(5-chloro-2-pyrimidinyl)oxy]benzonitrile] | 70

System: ragweed (common ragweed, Ambrosia elatior)
Test: Test A preemergence, ragweed
Type: in vivo
Settings: Ambrosia artemisiifolia, pre-emergence, 240 h; Preemergence, 125 g ai/ha; 0 to 100 scale (0 no effect, 100 complete control); read-out: Plant response rating, Ragweed
In short: as §1

Compound | pest or weed control at 125 g/ha [%]
CCCCOc1c(C#N)cccc1Oc1ncc(Cl)cn1 [Compound 35, 2-butoxy-3-[(5-chloro-2-pyrimidinyl)oxy]benzonitrile] | 10

Same assay, conditions: Ambrosia artemisiifolia, pre-emergence, 240 h; Preemergence, 500 g ai/ha; 0 to 100 scale (0 no effect, 100 complete control); read-out: Plant response rating, Ragweed

Compound | pest or weed control at 500 g/ha [%]
CCCCOc1c(C#N)cccc1Oc1ncc(Cl)cn1 [Compound 35, 2-butoxy-3-[(5-chloro-2-pyrimidinyl)oxy]benzonitrile] | 30

System: pigweed (Amaranthus retroflexus)
Test: Test A postemergence, pigweed
Type: in vivo
Settings: Amaranthus retroflexus, post-emergence, 240 h; 125 g ai/ha, postemergence; 0 to 100 scale, 0 is no effect, 100 is complete control; approximately 10 days; read-out: Plant response rating, Pigweed
In short: as §1

Compound | pest or weed control at 125 g/ha [%]
CCCCOc1c(C#N)cccc1Oc1ncc(Cl)cn1 [Compound 35, 2-butoxy-3-[(5-chloro-2-pyrimidinyl)oxy]benzonitrile] | 90

Same assay, conditions: Amaranthus retroflexus, post-emergence, 240 h; 500 g ai/ha, postemergence; 0 to 100 scale, 0 is no effect, 100 is complete control; approximately 10 days; read-out: Plant response rating, Pigweed

Compound | pest or weed control at 500 g/ha [%]
CCCCOc1c(C#N)cccc1Oc1ncc(Cl)cn1 [Compound 35, 2-butoxy-3-[(5-chloro-2-pyrimidinyl)oxy]benzonitrile] | 100

System: foxtail, giant (giant foxtail, Setaria faberii)
Test: Test A preemergence, giant foxtail
Type: in vivo
Settings: Setaria faberi, pre-emergence, 240 h; Preemergence, 125 g ai/ha; 0 to 100 scale (0 no effect, 100 complete control); read-out: Plant response rating, Foxtail, Giant
In short: as §1

Compound | pest or weed control at 125 g/ha [%]
CCCCOc1c(C#N)cccc1Oc1ncc(Cl)cn1 [Compound 35, 2-butoxy-3-[(5-chloro-2-pyrimidinyl)oxy]benzonitrile] | 100

Same assay, conditions: Setaria faberi, pre-emergence, 240 h; Preemergence, 500 g ai/ha; 0 to 100 scale (0 no effect, 100 complete control); read-out: Plant response rating, Foxtail, Giant

Compound | pest or weed control at 500 g/ha [%]
CCCCOc1c(C#N)cccc1Oc1ncc(Cl)cn1 [Compound 35, 2-butoxy-3-[(5-chloro-2-pyrimidinyl)oxy]benzonitrile] | 100

System: barnyardgrass (Echinochloa crus-galli)
Test: Test B flooded paddy test, barnyardgrass
Type: in vivo
Settings: Echinochloa crus-galli; 250 g ai/ha, Flood; visual rating after 13 to 15 days; scale 0 to 100, 0 is no effect, 100 is complete control; read-out: Plant response rating, Barnyardgrass
In short: (§2)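 Visual injury scored 0 (no effect) to 100 (complete control) relative to controls 13-15 days after treatment in greenhouse. Treatment: test compound added into paddy water of pots flooded 3 cm over soil, holding 2-leaf-stage plants; water level kept constant.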

Compound | pest or weed control at 250 g/ha [%]
CCCCOc1c(C#N)cccc1Oc1ncc(Cl)cn1 [Compound 35, 2-butoxy-3-[(5-chloro-2-pyrimidinyl)oxy]benzonitrile] | 30

System: sedge, umbrella (small-flower umbrella sedge, Cyperus difformis)
Test: Test B flooded paddy test, umbrella sedge
Type: in vivo
Settings: Cyperus difformis; 250 g ai/ha, Flood; visual rating after 13 to 15 days; scale 0 to 100, 0 is no effect, 100 is complete control; read-out: Plant response rating, Sedge, Umbrella
In short: as §2

Compound | pest or weed control at 250 g/ha [%]
CCCCOc1c(C#N)cccc1Oc1ncc(Cl)cn1 [Compound 35, 2-butoxy-3-[(5-chloro-2-pyrimidinyl)oxy]benzonitrile] | 70

System: rice (Oryza sativa)
Test: Test B flooded paddy test, rice
Type: in vivo
Settings: Oryza sativa; 250 g ai/ha, Flood; visual rating after 13 to 15 days; scale 0 to 100, 0 is no effect, 100 is complete control; read-out: Plant response rating, Rice
In short: as §2

Compound | plant injury at 250 g/ha [%]
CCCCOc1c(C#N)cccc1Oc1ncc(Cl)cn1 [Compound 35, 2-butoxy-3-[(5-chloro-2-pyrimidinyl)oxy]benzonitrile] | 0

System: pigweed (Amaranthus retroflexus)
Test: Test A preemergence, pigweed
Type: in vivo
Settings: Amaranthus retroflexus, pre-emergence, 240 h; Preemergence, 125 g ai/ha; 0 to 100 scale (0 no effect, 100 complete control); read-out: Plant response rating, Pigweed
In short: as §1

Compound | pest or weed control at 125 g/ha [%]
CCCCOc1c(C#N)cccc1Oc1ncc(Cl)cn1 [Compound 35, 2-butoxy-3-[(5-chloro-2-pyrimidinyl)oxy]benzonitrile] | 100

Same assay, conditions: Amaranthus retroflexus, pre-emergence, 240 h; Preemergence, 500 g ai/ha; 0 to 100 scale (0 no effect, 100 complete control); read-out: Plant response rating, Pigweed

Compound | pest or weed control at 500 g/ha [%]
CCCCOc1c(C#N)cccc1Oc1ncc(Cl)cn1 [Compound 35, 2-butoxy-3-[(5-chloro-2-pyrimidinyl)oxy]benzonitrile] | 100

System: ragweed (common ragweed, Ambrosia elatior)
Test: Test A postemergence, ragweed
Type: in vivo
Settings: Ambrosia artemisiifolia, post-emergence, 240 h; 125 g ai/ha, postemergence; 0 to 100 scale, 0 is no effect, 100 is complete control; approximately 10 days; read-out: Plant response rating, Ragweed
In short: as §1

Compound | pest or weed control at 125 g/ha [%]
CCCCOc1c(C#N)cccc1Oc1ncc(Cl)cn1 [Compound 35, 2-butoxy-3-[(5-chloro-2-pyrimidinyl)oxy]benzonitrile] | 10

Same assay, conditions: Ambrosia artemisiifolia, post-emergence, 240 h; 500 g ai/ha, postemergence; 0 to 100 scale, 0 is no effect, 100 is complete control; approximately 10 days; read-out: Plant response rating, Ragweed

Compound | pest or weed control at 500 g/ha [%]
CCCCOc1c(C#N)cccc1Oc1ncc(Cl)cn1 [Compound 35, 2-butoxy-3-[(5-chloro-2-pyrimidinyl)oxy]benzonitrile] | 20

System: ryegrass, Italian (Italian ryegrass, Lolium multiflorum)
Test: Test A preemergence, Italian ryegrass
Type: in vivo
Settings: Lolium multiflorum, pre-emergence, 240 h; Preemergence, 125 g ai/ha; 0 to 100 scale (0 no effect, 100 complete control); read-out: Plant response rating, Ryegrass, Italian
In short: as §1

Compound | pest or weed control at 125 g/ha [%]
CCCCOc1c(C#N)cccc1Oc1ncc(Cl)cn1 [Compound 35, 2-butoxy-3-[(5-chloro-2-pyrimidinyl)oxy]benzonitrile] | 30

Same assay, conditions: Lolium multiflorum, pre-emergence, 240 h; Preemergence, 500 g ai/ha; 0 to 100 scale (0 no effect, 100 complete control); read-out: Plant response rating, Ryegrass, Italian

Compound | pest or weed control at 500 g/ha [%]
CCCCOc1c(C#N)cccc1Oc1ncc(Cl)cn1 [Compound 35, 2-butoxy-3-[(5-chloro-2-pyrimidinyl)oxy]benzonitrile] | 90

System: kochia (Kochia scoparia)
Test: Test A preemergence, kochia
Type: in vivo
Settings: Bassia scoparia, pre-emergence, 240 h; Preemergence, 125 g ai/ha; 0 to 100 scale (0 no effect, 100 complete control); read-out: Plant response rating, Kochia
In short: as §1

Compound | pest or weed control at 125 g/ha [%]
CCCCOc1c(C#N)cccc1Oc1ncc(Cl)cn1 [Compound 35, 2-butoxy-3-[(5-chloro-2-pyrimidinyl)oxy]benzonitrile] | 100

Same assay, conditions: Bassia scoparia, pre-emergence, 240 h; Preemergence, 500 g ai/ha; 0 to 100 scale (0 no effect, 100 complete control); read-out: Plant response rating, Kochia

Compound | pest or weed control at 500 g/ha [%]
CCCCOc1c(C#N)cccc1Oc1ncc(Cl)cn1 [Compound 35, 2-butoxy-3-[(5-chloro-2-pyrimidinyl)oxy]benzonitrile] | 100

System: ducksalad (Heteranthera limosa)
Test: Test B flooded paddy test, ducksalad
Type: in vivo
Settings: Heteranthera limosa; 250 g ai/ha, Flood; visual rating after 13 to 15 days; scale 0 to 100, 0 is no effect, 100 is complete control; read-out: Plant response rating, Ducksalad
In short: as §2

Compound | pest or weed control at 250 g/ha [%]
CCCCOc1c(C#N)cccc1Oc1ncc(Cl)cn1 [Compound 35, 2-butoxy-3-[(5-chloro-2-pyrimidinyl)oxy]benzonitrile] | 65
